Measurements published in patent US20260070909A1, “GPR65 MODULATORS” (Pathios Therapeutics Limited, priority 2022, published 2026).
pIC50: −log10 of the molar value.

Target: human recombinant GPR65 (Homo sapiens, UniProt Q8IYL9)
Test: Human GPR65 cAMP HTRF antagonist assay
Type: cell-based
Settings: not given
Text: In one preferred embodiment, the compound prevents the increase in cytoplasmic cAMP levels expected following GPR65 activation at acidic pH. This prevention of cAMP accumulation in turn prevents downstream signalling through ICER, as described above. The “Human GPR65 cyclic adenosine monophosphate (cAMP) Homogeneous Time Resolved Fluorescence (HTRF) antagonist assay”, or simply “cAMP assay”, as described in the accompanying examples, can be used to measure the potency of GPR65 modulators, which is expressed as the concentration of compound required to reduce the increase in cAMP concentration upon GPR65 activation by 50% (i.e. an IC50).
Human GPR65 Cyclic Adenosine Monophosphate (cAMP) Homogeneous Time Resolved Fluorescence (HTRF) Antagonist Assay Procedure
IC50 data was obtained by the following procedure:
1321N1 human astrocytoma cells stably expressing human recombinant GPR65 (1321N1-hrGPR65 cells, EuroscreenFast) were cultured according to the vendor's instructions. Compounds were tested for their ability to antagonise GPR65, through measuring the concentration of cytoplasmic cAMP following treatment of the cells at a pH of 7.2 to activate GPR65 signalling and addition of the compound to be tested. The extent to which the expected rise in cAMP concentration upon GPR65 activation was suppressed by the added compound is indicative of its potency. The assay was carried out according to EuroscreenFast assay Methodology as follows.
On the day of the assay, test compounds were added to 384-well, low volume, white microtiter plates by acoustic dispensing. KRH buffer (5 mM KCl, 1.25 mM MgSO4, 124 mM NaCl, 25 mM HEPES, 13.3 mM Glucose, 1.25 mM KH2PO4 and 1.45 mM CaCl2) was adjusted to pH 6.5, pH 7.6 and pH 8.4 by adding NaOH. 1321N1-hGPR65 cells were rapidly thawed and diluted in KRH, pH 7.6 prior to centrifugation at 300×g for 5 min and resuspension in assay buffer (KRH, pH 7.6, supplemented with 1 mM 3-isobutyl-1-methylxanthine (IBMX) and 200 μM ethylenediaminetetraacetic acid (EDTA)). Cells were added to assay plates at a density of 2,000 cells per well in a volume of 5 μl. Assay plates were briefly centrifuged at 100×g and then incubated at room temperature for 30 min. Cells were stimulated by the addition of 5 μL KRH, pH 6.5, to achieve an assay pH of 7.2, while control wells received 5 μl KRH, pH 8.4 to achieve an assay pH of 7.9. Assay plates were briefly centrifuged at 100×g and then incubated at room temperature for 30 min.
Accumulation of cAMP was detected by cAMP HTRF kit (Cisbio). d2-labeled cAMP and cryptate-labeled anti-cAMP antibody in Lysis and Detection Buffer (Cisbio) were added to assay plates, and the plates were incubated at room temperature for 1 h. HTRF measurements were performed using a Pherastar FSX instrument. Acceptor and donor emission signals were measured at 665 nm and 620 nm, respectively, and HTRF ratios were calculated as signal665 nm/signal620 nm×10^4. Data were normalised to high and low control values and fitted with 4-parameter logistic regression to determine hGPR65 IC50 values for the test compounds, which are shown in Table 1.

human recombinant GPR65, sequence (Q8IYL9 whole entry): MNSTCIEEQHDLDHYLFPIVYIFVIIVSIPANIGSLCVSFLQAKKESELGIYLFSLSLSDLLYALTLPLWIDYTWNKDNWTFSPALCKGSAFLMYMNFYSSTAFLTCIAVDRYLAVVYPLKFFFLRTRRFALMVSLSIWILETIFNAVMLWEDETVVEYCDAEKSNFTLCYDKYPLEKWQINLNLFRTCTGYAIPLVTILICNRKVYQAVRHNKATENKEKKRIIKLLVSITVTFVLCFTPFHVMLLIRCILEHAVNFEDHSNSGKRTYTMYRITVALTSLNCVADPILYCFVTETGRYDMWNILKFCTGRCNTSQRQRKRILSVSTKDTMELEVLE

SMILES | pIC50
O=C1NN=C2C(=CC3CCC2N3C(=O)Nc2cc(Cl)c(C(F)(F)F)cc2F)N1 (racemic) [Compound 1, (±)-N-(5-Chloro-2-fluoro-4-(trifluoromethyl)phenyl)-3-oxo-3,4,6,7,8,9-hexahydro-2H-6,9-epiminocyclohepta[e][1,2,4]triazine-10-carboxamide] | > 6.30
O=C1NN=C2C(=CC3CCC2N3C(=O)Nc2cc(Cl)c(-c3cncc(F)c3)cc2F)N1 (racemic) [Compound 2, (±)-N-(5-Chloro-2-fluoro-4-(5-fluoropyridin-3-yl)phenyl)-3-oxo-3,4,6,7,8,9-hexahydro-2H-6,9-epiminocyclohepta[e][1,2,4]triazine-10-carboxamide] | > 6.30
O=C1NN=C2C(=CC3CCC2N3C(=O)Nc2cc(Cl)c(-c3ccc(F)nc3)cc2F)N1 (racemic) [Compound 3, (±)-N-(5-chloro-2-fluoro-4-(6-fluoropyridin-3-yl)phenyl)-3-oxo-3,4,6,7,8,9-hexahydro-2H-6,9-epiminocyclohepta[e][1,2,4]triazine-10-carboxamide] | > 6.30
O=C1NN=C2C(=CC3CCC2N3C(=O)Nc2cc(Cl)c(-c3ccc4nonc4c3)cc2F)N1 (racemic) [Compound 4, (±)-N-(4-(benzo[c][1,2,5]oxadiazol-5-yl)-5-chloro-2-fluorophenyl)-3-oxo-3,4,6,7,8,9-hexahydro-2H-6,9-epiminocyclohepta[e][1,2,4]triazine-10-carboxamide] | > 6.30
O=C(Nc1cc(Cl)c(C(F)(F)F)cc1F)N1[C@@H]2C=C3NC(=S)NN=C3[C@H]1CC2 [Compound 7, (6S,9R)-N-(5-Chloro-2-fluoro-4-(trifluoromethyl)phenyl)-3-thioxo-3,4,6,7,8,9-hexahydro-2H-6,9-epiminocyclohepta[e][1,2,4]triazine-10-carboxamide] | > 6.30
O=C1NN=C2C(=C[C@@H]3CC[C@H]2N3C(=O)Nc2cc(Cl)c(C(F)(F)F)cc2F)N1 [Compound 8, (6S,9R)-N-(5-Chloro-2-fluoro-4-(trifluoromethyl)phenyl)-3-oxo-3,4,6,7,8,9-hexahydro-2H-6,9-epiminocyclohepta[e][1,2,4]triazine-10-carboxamide] | > 6.30
CC(C)Oc1ccc(-c2cc(F)c(NC(=O)N3[C@@H]4C=C5NC(=O)NN=C5[C@H]3CC4)cc2Cl)cn1 [Compound 10, (6S,9R)-N-(5-Chloro-2-fluoro-4-(6-isopropoxypyridin-3-yl)phenyl)-3-oxo-3,4,6,7,8,9-hexahydro-2H-6,9-epiminocyclohepta[e][1,2,4]triazine-10-carboxamide] | > 6.30
O=C1NN=C2C(=C[C@@H]3CC[C@H]2N3C(=O)Nc2cc(Cl)c(-c3ccc(OCC(F)(F)F)nc3)cc2F)N1 [Compound 11, (6S,9R)-N-(5-Chloro-2-fluoro-4-(6-(2,2,2-trifluoroethoxy)pyridine-3-yl)phenyl)-3-oxo-3,4,6,7,8,9-hexahydro-2H-6,9-epiminocyclohepta[e][1,2,4]triazine-10-carboxamide] | > 6.30
O=C1NN=C2C(=C[C@@H]3CC[C@H]2N3C(=O)Nc2cc(Cl)c(-c3ccc4nonc4c3)cc2F)N1 [Compound 13, (6S,9R)-N-(4-(Benzo[c][1,2,5]oxadiazol-5-yl)-5-chloro-2-fluorophenyl)-3-oxo-3,4,6,7,8,9-hexahydro-2H-6,9-epiminocyclohepta[e][1,2,4]triazine-10-carboxamide] | > 6.30

Same assay, conditions: 1321N1-hrGPR65 cells, assay pH 7.2, suppression of cAMP rise, HTRF; read-out: hGPR65 IC50 (activity class)

SMILES | pIC50
O=C1NN=C2C(=CC3CCC2N3C(=O)Nc2cc(C(F)(F)F)on2)N1 (racemic) [Compound 5, (±)-3-Oxo-N-(5-(trifluoromethyl)isoxazol-3-yl)-3,4,6,7,8,9-hexahydro-2H-6,9-epiminocyclohepta[e][1,2,4]triazine-10-carboxamide] | 5.30 to 6.30
CS(=O)(=O)c1nnc2c(n1)CC1CCC2N1C(=O)Nc1cc(Cl)c(C(F)(F)F)cc1F (racemic) [Compound 6, (±)-N-(5-Chloro-2-fluoro-4-(trifluoromethyl)phenyl)-3-(methylsulfonyl)-6,7,8,9-tetrahydro-5H-6,9-epiminocyclohepta[e][1,2,4]triazine-10-carboxamide] | 5.30 to 6.30
O=C1NN=C2C(=C[C@H]3CC[C@@H]2N3C(=O)Nc2cc(Cl)c(C(F)(F)F)cc2F)N1 [Compound 9, (6R,9S)-N-(5-Chloro-2-fluoro-4-(trifluoromethyl)phenyl)-3-oxo-3,4,6,7,8,9-hexahydro-2H-6,9-epiminocyclohepta[e][1,2,4]triazine-10-carboxamide] | 5.30 to 6.30
O=C1NN=C2C(=C[C@H]3CC[C@@H]2N3C(=O)Nc2cc(Cl)c(-c3ccc4nonc4c3)cc2F)N1 [Compound 12, (6R,9S)-N-(4-(Benzo[c][1,2,5]oxadiazol-5-yl)-5-chloro-2-fluorophenyl)-3-oxo-3,4,6,7,8,9-hexahydro-2H-6,9-epiminocyclohepta[e][1,2,4]triazine-10-carboxamide] | 5.30 to 6.30
